Reference: patent publication US11975003B2, “Methods and compositions for treatment of Zika virus infection” (priority 2016, dated 2024)
≈ marks a conversion by molar mass, not a printed value. Like-named read-outs stand apart in the source and are kept apart here.

How the values were obtained:
[1] = system: Zika virus; assay: Virus yield reduction curves (FIGS. 1E-1G), strain not stated; assay type: cell-based
Description: (§1) The compounds were administered at a range of concentrations up to 100 μg/ml. Compounds were prepared in MEM just prior to testing. Inhibition of virus replication was determined by microscopic examination of the infected cells for cytopathic effect, increase of neutral red (NR) dye uptake (colorimetric determination), and virus yield reduction. Uninfected cells treated with a compound were assayed as above for cytotoxicity control. The EC50, EC90 and SI (selectivity index) values were determined in Vero76, Huh7 and RD cells as analyzed by the neutral red uptake dye assay and virus yield reduction assays. The results are presented from 3 or more independent experiments (standard deviations not shown. Three Zika virus strains were used in this in vitro study, Malaysia strain P 6-740, Uganda strain MR-766 and Puerto Rico strain PRVABC-59. Cells were maintained under standard conditions.

[2] = system: Zika virus Uganda MR 766; assay: CPE reduction assay (neutral red uptake); assay type: cell-based; settings: Zika virus
Description: as §1

[3] = system: Zika virus Puerto Rico PRVABC59; assay: CPE reduction assay (neutral red uptake); assay type: cell-based; settings: Zika virus
Description: as §1

[4] = system: Zika virus Malaysia P 6-740; assay: CPE reduction assay (neutral red uptake); assay type: cell-based; settings: Zika virus
Description: as §1

[5] = system: Zika virus (Malaysia, strain P 6-740); assay: Murine Zika virus model, treatment begun 4 h before infection (Example 3); settings: for percentage weight change vs placebo: FIG. 6; for relative virus levels vs placebo: FIG. 7; for survival vs placebo: none surviving past day 20
Description: The agents used in this experiment were compound A (the compound of formula I, where A is NH2 and B is H as the HCL salt) and ribavirin. Compound A was administered IM at 150 mg/kg/day and 300 mg/kg/day, each in a volume of 0.05 ml saline and ribavirin was administered IP at 75 mg/kg/day and 50 mg/kg/day, each in a volume of 0.1 ml saline. IM or IP administration of the daily dose was accomplished in two IM/IP injections of one-half the daily dose each. Mice were administered the first dose of Compound A and ribavirin 4 hours prior to infection with Zika virus and continued the treatment for 8 days post-infection.
In this experiment, Zika virus (Malaysia, strain P 6-740) was administered at a challenge dose of 100 CCID50 (10^3 pfu) per mouse via subcutaneous injection in a 0.1 ml volume.
Mice were monitored for survival 28 days post-virus challenge. Weight change for individual mice were taken on day 0 and every other day through the end of the experiments. Mice were observed daily for signs of disease including conjunctivitis, hunching, and limb weakness or paralysis.
For Zika virus infection and antiviral treatment studies, mice were randomly assigned to groups of 10 animals each. A 10^-3 dilution (10^4.0 pfu/mL) of the virus was prepared in MEM. Mice were challenged s.c. with 0.1 mL of the diluted virus (˜10^3.0 pfu/animal). All compound dosages were based on an average mouse weight of 22 g. Compounds were prepared in sterile saline less than 18 hours prior to initial administration in mice and stored at 4° C. for the duration of the study. Compound A was administered i.m., twice daily (bid) at 300 or 150 mg/kg/d. Ribavirin was given i.p., bid at 75 or 50 mg/kg/d. Treatments began 4 hours prior to virus challenge and continued for 8 days. The identity of the treatment groups was blinded to the technician administering treatments. Mortality was observed twice daily for 28 days, and the weight of each mouse was recorded on day 0 and then every other day from 1-19 days post-virus infection (dpi). Mice were humanely euthanized if they could no longer right themselves or were unresponsive to stimuli.
Fifty to 100 mg of freshly isolated tissue was ground with a pestle in 1 mL TRI Reagent (Sigma-Aldrich, St. Louis, MO) and total RNA was extracted. For the extraction of viral RNA from liquid samples, QlAamp Viral RNA Mini Spin kit was used according to the manufactures instructions (Qiagen, Valencia, CA). Extracted RNA was eluted with nuclease-free water and was amplified by a quantitative real-time RT-PCR using the Logix Smart Zika Test developed by Co-Diagnostics, Inc. (Bountiful, UT). Five μL of the master mix containing a set of primers and Rapid Probe, labeled with a FAM fluorophore and DABCYL quencher, was mixed with 2-5 μL of RNA and an appropriate volume of water for a final reaction volume of 10 μl. RNA was first reverse transcribed for 10 minutes at 55° C., followed by strand separation by heating to 95° C. for 20 seconds. The PCR reaction consisted of 40 cycles at 95° C. for 1 second and 55° C. for 20 seconds. A standard curve was generated with a synthetic RNA spanning the region of amplification and it was used to calculate the number of genome equivalents of the unknown samples.

[6] = system: Zika virus Uganda MR 766; assay: Virus yield reduction (VYR) assay; assay type: cell-based; settings: Zika virus
Description: as §1

[7] = system: Zika virus Puerto Rico PRVABC59; assay: Virus yield reduction (VYR) assay; assay type: cell-based; settings: Zika virus
Description: as §1

[8] = system: Zika virus Malaysia P 6-740; assay: Virus yield reduction (VYR) assay; assay type: cell-based; settings: Zika virus
Description: as §1

[9] = Phase 1 study of intramuscular injection in healthy human subjects (Example 8); assay type: in vivo; settings: Compound A 4 mg/kg IM with lidocaine
Description: A phase 1 double-blind, placebo-controlled, dose-ranging study was conducted to evaluate the safety, tolerability, and pharmacokinetics of Compound A administered by intramuscular injection (IM) in healthy human subjects. The study was conducted in two parts. In part 1, subjects received a single dose of Compound A at doses from 0.3 mg/kg to 10 mg/kg via IM administration. Additionally, the effect of lidocaine administration (co-administered with Compound A at a dose of 4 mg/kg) on alleviation of pain associated with injection was also evaluated. In part 2, subjects received Compound A for 7 days (q.d.) at doses of 2.5 mg/kg/day, 5 mg/kg/day or 10 mg/kg/day via IM administration. 50 subjects received single doses of Compound A in part 1 (12 subjects received placebo) and 23 subjects received multiple doses of Compound A in part 2 (6 subjects received placebo). All planned cohorts were completed.
Eligible subjects were adults of either sex ages 18 to 50. […]
The plasma concentration time profile of Compound A was determined for each subject in part 2 (results expressed as ng/ml Compound A). Blood samples were taken on Day 1 prior to administration of the first dose and at 1, 2, 3, 4, 6, 8, 10, 12, 16 and 24 hours after administration of the first dose of Compound A and on Day 7 prior to administration of the last dose of Compound A and at 1, 2, 3, 4, 6, 8, 10, 12, 16, 24, 36, 48, 72 and 96 hours after administration of the last dose of Compound A. Plasma samples were obtained from the blood samples and the concentration of Compound A determined.

With `NC(=O)c1ncn([C@@H]2O[C@H](CO)[C@@H](O)[C@H]2O)n1` [Ribavirin, reference compound] the “antiviral activity in virus yield reduction” value ([1]; Huh-7 cells, FIG. 1F) was “confirmed the antiviral activity”, the “antiviral activity in virus yield reduction” value ([1]; RD cells, FIG. 1G) was “confirmed the antiviral activity” and the “activity in VYR studies” value ([1]; Vero76 cells, FIG. 1E) was “not active”. It also gave an EC50 ([2]; Huh-7 cells) of 8.9 ± 7.9 µg/mL (≈ 36.4 µM), an EC50 ([2]; RD cells) of 9.3 ± 5.2 µg/mL (≈ 38.1 µM) and an EC50 ([2]; Vero 76, Vero76 cells) of 85 ± 77.9 µg/mL (≈ 348 µM). It also gave an EC50 ([3]; Vero 76, read-out: CPE red. assay EC50) of 23 ± 16.8 µg/mL (≈ 94.2 µM), an EC50 ([3]; Puerto Rico PRVABC59, Huh-7 cells, read-out: CPE red. assay EC50) of 3.8 ± 1.6 µg/mL (≈ 15.6 µM) and an EC50 ([3]; Puerto Rico PRVABC59, RD cells, read-out: CPE red. assay EC50) of 10 ± 6 µg/mL (≈ 40.9 µM). The EC50 ([4]; Huh-7 cells) was 7.2 ± 2.8 µg/mL (≈ 29.5 µM), the EC50 ([4]; Vero 76, Vero76 cells) was 143 ± 85 µg/mL (≈ 586 µM) and the “percentage weight change vs placebo” value ([5]; 50 mg/kg/day IP (group 7)) was “no significant improvement”. The “relative virus levels vs placebo” value ([5]; 50 mg/kg/day IP (group 7)) was “failed to decrease relative virus levels”, the survival vs placebo ([5]; 50 mg/kg/day IP bid x 8 days, begun -4 h (group 7)) was “did not increase the survival” and the “percentage weight change vs placebo” value ([5]; 75 mg/kg/day IP (group 5)) was “no significant improvement”. For the same molecule, the “relative virus levels vs placebo” value ([5]; 75 mg/kg/day IP (group 5)) was “failed to decrease relative virus levels”, the survival vs placebo ([5]; 75 mg/kg/day IP bid x 8 days, begun -4 h (group 5)) was “did not increase the survival” and the “weight change in sham-infected mice at day 19” value ([5]; 75 mg/kg/day IP, sham infection) was “no significant weight change”. The EC90 ([6]; Huh-7 cells) was 9.52 ± 2.1 µg/mL (≈ 39 µM), the EC90 ([6]; RD cells) was 13.2 ± 1.7 µg/mL (≈ 54.1 µM) and the EC90 ([6]; Vero 76, Vero76 cells) was 198 ± 172 µg/mL (≈ 811 µM). The EC90 ([7]; Vero 76, read-out: VYR assay EC90) was at least 281 µg/mL, the EC90 ([7]; Puerto Rico PRVABC59, Huh-7 cells, read-out: VYR assay EC90) was 10.4 ± 0.8 µg/mL (≈ 42.6 µM) and the EC90 ([7]; Puerto Rico PRVABC59, RD cells, read-out: VYR assay EC90) was 46.3 ± 8.6 µg/mL (≈ 190 µM). For the same molecule, the EC90 ([8]; Huh-7 cells) was 13.1 ± 0.5 µg/mL (≈ 53.6 µM) and the EC90 ([8]; Vero 76, Vero76 cells) was 195 ± 63.6 µg/mL (≈ 799 µM).
In the case of `CCN(CC)CC(=O)Nc1c(C)cccc1C` [lidocaine, reference compound], the “injection site pain on co-administration with Compound A” value [9] is reported as “ameliorate injection site pain”.
